Results reported in ChEMBL document CHEMBL1201861, “Genomics of Drug Sensitity in Cancer screening data, Wellcome Trust Sanger Institute”.

Key:
Assay in all cases: cells
8-MG-BA = assay type: functional, cell-based, Homo sapiens; conditions: Homo sapiens, 8-MG-BA;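 further: growth inhibition of 8-MG-BA cells, read out with a cell viability assay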
Description: SANGER: Inhibition of human 8-MG-BA cell growth in a cell viability assay.

LAMA-84 = assay type: functional, cell-based, Homo sapiens; conditions: Homo sapiens, LAMA-84;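 further: growth inhibition of LAMA-84 cells, read out with a cell viability assay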
Description: SANGER: Inhibition of human LAMA-84 cell growth in a cell viability assay.

EW-13 = assay type: functional, cell-based, Homo sapiens; conditions: Homo sapiens, EW-13;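 further: growth inhibition of EW-13 cells, read out with a cell viability assay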
Description: SANGER: Inhibition of human EW-13 cell growth in a cell viability assay.

SNU-C2B = assay type: functional, cell-based, Homo sapiens; conditions: Homo sapiens, SNU-C2B;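 further: cell viability readout used to measure compound-driven suppression of SNU-C2B cell proliferation, IC50 marking half-maximal growth inhibition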
Description: SANGER: Inhibition of human SNU-C2B cell growth in a cell viability assay.

SK-MEL-2 = assay type: functional, cell-based, Homo sapiens; conditions: Homo sapiens, SK-MEL-2;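 further: growth inhibition of human SK-MEL-2 cells measured with a cell viability assay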
Description: SANGER: Inhibition of human SK-MEL-2 cell growth in a cell viability assay.

CW-2 = assay type: functional, cell-based, Homo sapiens; conditions: Homo sapiens, CW-2;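 further: growth inhibition of CW-2 cells, read out by a cell viability assay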
Description: SANGER: Inhibition of human CW-2 cell growth in a cell viability assay.

SW982 = assay type: functional, cell-based, Homo sapiens; conditions: Homo sapiens, SW982;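 further: growth inhibition of SW982 cells, read out with a cell viability assay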
Description: SANGER: Inhibition of human SW982 cell growth in a cell viability assay.

OCUB-M = assay type: functional, cell-based, Homo sapiens; conditions: Homo sapiens, OCUB-M;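 further: growth inhibition of the cancer cell line, read out through a cell viability assay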
Description: SANGER: Inhibition of human OCUB-M cell growth in a cell viability assay.

CGTH-W-1 = assay type: functional, cell-based, Homo sapiens; conditions: Homo sapiens, CGTH-W-1;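 further: growth inhibition of human CGTH-W-1 cells measured by cell viability assay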
Description: SANGER: Inhibition of human CGTH-W-1 cell growth in a cell viability assay.

KMOE-2 = assay type: functional, cell-based, Homo sapiens; conditions: Homo sapiens, KMOE-2;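 further: growth inhibition of human KMOE-2 cells, read out with a cell viability assay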
Description: SANGER: Inhibition of human KMOE-2 cell growth in a cell viability assay.

P30-OHK = assay type: functional, cell-based, Homo sapiens; conditions: Homo sapiens, P30-OHK;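 further: growth inhibition of the P30-OHK cell line, read out with a cell viability assay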
Description: SANGER: Inhibition of human P30-OHK cell growth in a cell viability assay.

HL-60 = assay type: functional, cell-based, Homo sapiens; conditions: Homo sapiens, HL-60;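 further: growth inhibition of human HL-60 cells, read out with a cell viability assay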
Description: SANGER: Inhibition of human HL-60 cell growth in a cell viability assay.

KURAMOCHI = assay type: functional, cell-based, Homo sapiens; conditions: Homo sapiens, KURAMOCHI;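 further: growth inhibition of KURAMOCHI cells, read out with a cell viability assay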
Description: SANGER: Inhibition of human KURAMOCHI cell growth in a cell viability assay.

LS-513 = assay type: functional, cell-based, Homo sapiens; conditions: Homo sapiens, LS-513
Description: SANGER: Inhibition of human LS-513 cell growth in a cell viability assay.

NB17 = assay type: functional, cell-based, Homo sapiens; conditions: Homo sapiens, NB17;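 further: growth inhibition of NB17 cells, read out with a cell viability assay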
Description: SANGER: Inhibition of human NB17 cell growth in a cell viability assay.

CTB-1 = assay type: functional, cell-based, Homo sapiens; conditions: Homo sapiens, CTB-1
Description: SANGER: Inhibition of human CTB-1 cell growth in a cell viability assay.

HAL-01 = assay type: functional, cell-based, Homo sapiens; conditions: Homo sapiens, HAL-01;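 further: growth inhibition of human HAL-01 cells, read out with a cell viability assay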
Description: SANGER: Inhibition of human HAL-01 cell growth in a cell viability assay.

HD-MY-Z = assay type: functional, cell-based, Homo sapiens; conditions: Homo sapiens, HD-MY-Z;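 further: growth inhibition of HD-MY-Z cells, read out with a cell viability assay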
Description: SANGER: Inhibition of human HD-MY-Z cell growth in a cell viability assay.

QIMR-WIL = assay type: functional, cell-based, Homo sapiens; conditions: Homo sapiens, QIMR-WIL;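 further: growth inhibition of QIMR-WIL cells, read out with a cell viability assay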
Description: SANGER: Inhibition of human QIMR-WIL cell growth in a cell viability assay.

NH-12 = assay type: functional, cell-based, Homo sapiens; conditions: Homo sapiens, NH-12;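 further: growth inhibition of NH-12 cells, read out with a cell viability assay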
Description: SANGER: Inhibition of human NH-12 cell growth in a cell viability assay.

K562 = assay type: functional, cell-based, Homo sapiens; conditions: Homo sapiens, K562
Description: SANGER: Inhibition of human K-562 cell growth in a cell viability assay.

SBC-1 = assay type: functional, cell-based, Homo sapiens; conditions: Homo sapiens, SBC-1;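 further: cell viability assay measuring growth inhibition of the SBC-1 cell line, IC50 being the concentration that halves growth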
Description: SANGER: Inhibition of human SBC-1 cell growth in a cell viability assay.

LC-2-ad = assay type: functional, cell-based, Homo sapiens; conditions: Homo sapiens, LC-2-ad;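 further: growth inhibition of human LC-2-ad cells, read out with a cell viability assay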
Description: SANGER: Inhibition of human LC-2-ad cell growth in a cell viability assay.

SK-UT-1 = assay type: functional, cell-based, Homo sapiens; conditions: Homo sapiens, SK-UT-1;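 further: growth inhibition of SK-UT-1 cells, measured by a cell viability assay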
Description: SANGER: Inhibition of human SK-UT-1 cell growth in a cell viability assay.

ONS-76 = assay type: functional, cell-based, Homo sapiens; conditions: Homo sapiens, ONS-76;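 further: growth inhibition of human ONS-76 cells, read out with a cell viability assay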
Description: SANGER: Inhibition of human ONS-76 cell growth in a cell viability assay.

LS-123 = assay type: functional, cell-based, Homo sapiens; conditions: Homo sapiens, LS-123
Description: SANGER: Inhibition of human LS-123 cell growth in a cell viability assay.

KM12 = assay type: functional, cell-based, Homo sapiens; conditions: Homo sapiens, KM12;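 further: KM12 cell growth inhibition, read out with a cell viability assay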
Description: SANGER: Inhibition of human KM12 cell growth in a cell viability assay.

MS-1 = assay type: functional, cell-based, Homo sapiens; conditions: Homo sapiens, MS-1;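 further: growth inhibition of MS-1 cells, read out by cell viability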
Description: SANGER: Inhibition of human MS-1 cell growth in a cell viability assay.

MC116 = assay type: functional, cell-based, Homo sapiens; conditions: Homo sapiens, MC116;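 further: growth inhibition of MC116 cells, read out with a cell viability assay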
Description: SANGER: Inhibition of human MC116 cell growth in a cell viability assay.

HH = assay type: functional, cell-based, Homo sapiens; conditions: Homo sapiens, HH
Description: SANGER: Inhibition of human HH cell growth in a cell viability assay.

TGBC1TKB = assay type: functional, cell-based, Homo sapiens; conditions: Homo sapiens, TGBC1TKB;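 further: growth inhibition of TGBC1TKB cells, read out by a cell viability assay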
Description: SANGER: Inhibition of human TGBC1TKB cell growth in a cell viability assay.

U-87 MG = assay type: functional, cell-based, Homo sapiens, U-87MG ATCC; conditions: Homo sapiens, U-87 MG;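 further: growth inhibition of the cells measured with a viability assay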
Description: SANGER: Inhibition of human U-87-MG cell growth in a cell viability assay.

HCC 2998 = assay type: functional, cell-based, Homo sapiens; conditions: Homo sapiens, HCC 2998;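 further: growth inhibition of human HCC2998 cells, measured with a cell viability read-out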
Description: SANGER: Inhibition of human HCC2998 cell growth in a cell viability assay.

ES3 = assay type: functional, cell-based, Homo sapiens; conditions: Homo sapiens, ES3;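 further: growth inhibition of ES3 cells, read out with a cell viability assay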
Description: SANGER: Inhibition of human ES3 cell growth in a cell viability assay.

NCI-H1092 = assay type: functional, cell-based, Homo sapiens; conditions: Homo sapiens, NCI-H1092;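 further: cell growth inhibition measured with a cell viability assay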
Description: SANGER: Inhibition of human NCI-H1092 cell growth in a cell viability assay.

OS-RC-2 = assay type: functional, cell-based, Homo sapiens; conditions: Homo sapiens, OS-RC-2;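 further: growth inhibition of human OS-RC-2 cells, measured by a cell viability assay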
Description: SANGER: Inhibition of human OS-RC-2 cell growth in a cell viability assay.

COLO-668 = assay type: functional, cell-based, Homo sapiens; conditions: Homo sapiens, COLO-668
Description: SANGER: Inhibition of human COLO-668 cell growth in a cell viability assay.

DMS-79 = assay type: functional, cell-based, Homo sapiens; conditions: Homo sapiens, DMS-79;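 further: growth inhibition measured with a cell viability assay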
Description: SANGER: Inhibition of human DMS-79 cell growth in a cell viability assay.

EW-11 = assay type: functional, cell-based, Homo sapiens; conditions: Homo sapiens, EW-11;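 further: growth inhibition of human EW-11 cells, measured with a cell viability assay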
Description: SANGER: Inhibition of human EW-11 cell growth in a cell viability assay.

A388 = assay type: functional, cell-based, Homo sapiens; conditions: Homo sapiens, A388;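 further: growth inhibition of human A388 cells, read out with a cell viability assay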
Description: SANGER: Inhibition of human A388 cell growth in a cell viability assay.

GAK = assay type: functional, cell-based, Homo sapiens; conditions: Homo sapiens, GAK;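 further: cell growth inhibition read out by a cell viability assay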
Description: SANGER: Inhibition of human GAK cell growth in a cell viability assay.

MFM-223 = assay type: functional, cell-based, Homo sapiens; conditions: Homo sapiens, MFM-223
Description: SANGER: Inhibition of human MFM-223 cell growth in a cell viability assay.

DSH1 = assay type: functional, cell-based, Homo sapiens; conditions: Homo sapiens, DSH1;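 further: growth inhibition of human DSH1 cells, measured with a cell viability readout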
Description: SANGER: Inhibition of human DSH1 cell growth in a cell viability assay.

JAR = assay type: functional, cell-based, Homo sapiens; conditions: Homo sapiens, JAR;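 further: growth inhibition of human JAR cells determined with a cell viability assay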
Description: SANGER: Inhibition of human JAR cell growth in a cell viability assay.

MLMA = assay type: functional, cell-based, Homo sapiens; conditions: Homo sapiens, MLMA;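 further: growth inhibition of MLMA cells (human), determined through a cell viability readout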
Description: SANGER: Inhibition of human MLMA cell growth in a cell viability assay.

COR-L88 = assay type: functional, cell-based, Homo sapiens; conditions: Homo sapiens, COR-L88;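 further: growth inhibition of COR-L88 cells, read out with a cell viability assay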
Description: SANGER: Inhibition of human COR-L88 cell growth in a cell viability assay.

KU812 cell line = assay type: functional, cell-based, Homo sapiens; conditions: Homo sapiens, KU812;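 further: growth inhibition of KU812 cells, read out with a cell viability assay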
Description: SANGER: Inhibition of human KU812 cell growth in a cell viability assay.

TGW = assay type: functional, cell-based, Homo sapiens; conditions: Homo sapiens, TGW;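 further: growth inhibition of human TGW cells, read out with a cell viability assay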
Description: SANGER: Inhibition of human TGW cell growth in a cell viability assay.

NCI-H69 = assay type: functional, cell-based, Homo sapiens; conditions: Homo sapiens, NCI-H69;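 further: growth inhibition of the cell line, read out with a cell viability assay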
Description: SANGER: Inhibition of human NCI-H69 cell growth in a cell viability assay.

CS(=O)(=O)c1ccc(C(=O)Nc2ccc(Cl)c(-c3ccccn3)c2)c(Cl)c1 [VISMODEGIB]
IC50 (8-MG-BA): > 10 µM | IC50 (LAMA-84): > 10 µM | IC50 (EW-13): > 10 µM | IC50 (SNU-C2B): > 10 µM | IC50 (SK-MEL-2): > 10 µM | IC50 (CW-2): > 10 µM | IC50 (SW982): > 10 µM | IC50 (OCUB-M): > 10 µM | IC50 (CGTH-W-1): > 10 µM | IC50 (KMOE-2): > 10 µM | IC50 (P30-OHK): > 10 µM | IC50 (HL-60): > 10 µM | IC50 (KURAMOCHI): > 10 µM | IC50 (LS-513): > 10 µM | IC50 (NB17): > 10 µM | IC50 (CTB-1): > 10 µM | IC50 (HAL-01): > 10 µM | IC50 (HD-MY-Z): > 10 µM | IC50 (QIMR-WIL): > 10 µM | IC50 (NH-12): > 10 µM | IC50 (K562): > 10 µM | IC50 (SBC-1): > 10 µM | IC50 (LC-2-ad): > 10 µM | IC50 (SK-UT-1): > 10 µM | IC50 (ONS-76): > 10 µM | IC50 (LS-123): > 10 µM | IC50 (KM12): > 10 µM | IC50 (MS-1): > 10 µM | IC50 (MC116): > 10 µM | IC50 (HH): > 10 µM | IC50 (TGBC1TKB): > 10 µM | IC50 (U-87 MG): > 10 µM | IC50 (HCC 2998): > 10 µM | IC50 (ES3): > 10 µM | IC50 (NCI-H1092): > 10 µM | IC50 (OS-RC-2): > 10 µM | IC50 (COLO-668): > 10 µM | IC50 (DMS-79): > 10 µM | IC50 (EW-11): > 10 µM | IC50 (A388): > 10 µM | IC50 (GAK): > 10 µM | IC50 (MFM-223): > 10 µM | IC50 (DSH1): > 10 µM | IC50 (JAR): > 10 µM | IC50 (MLMA): > 10 µM

CC(C)c1ccccc1Cc1cc(C(=O)Nc2ccc(S(=O)(=O)c3ccccc3C(C)(C)C)cc2)c(O)c(O)c1O
IC50 (8-MG-BA): 0.154 µM | IC50 (SNU-C2B): 0.257 µM | IC50 (SK-MEL-2): 0.23 µM | IC50 (CW-2): 0.446 µM | IC50 (SW982): 0.111 µM | IC50 (OCUB-M): 0.243 µM | IC50 (CGTH-W-1): 0.186 µM | IC50 (KURAMOCHI): 1.94 µM | IC50 (LS-513): 0.607 µM | IC50 (NB17): 1.06 µM | IC50 (HD-MY-Z): 0.395 µM | IC50 (NH-12): 0.172 µM | IC50 (LC-2-ad): 0.424 µM | IC50 (SK-UT-1): 0.0287 µM | IC50 (ONS-76): 0.325 µM | IC50 (LS-123): 2.2 µM | IC50 (KM12): 1.88 µM | IC50 (TGBC1TKB): 1.13 µM | IC50 (U-87 MG): 0.0822 µM | IC50 (HCC 2998): 5.89 µM | IC50 (ES3): 0.359 µM | IC50 (OS-RC-2): 0.737 µM | IC50 (COLO-668): 5.1 µM | IC50 (EW-11): 0.434 µM | IC50 (A388): 0.167 µM | IC50 (GAK): 2.03 µM | IC50 (MFM-223): 0.847 µM | IC50 (DSH1): 0.517 µM | IC50 (JAR): 0.0026 µM | IC50 (MLMA): 0.185 µM

C=C(c1ccc(C(=O)O)cc1)c1cc2c(cc1C)C(C)(C)CCC2(C)C [BEXAROTENE]
IC50 (8-MG-BA): > 8 µM | IC50 (LAMA-84): > 8 µM | IC50 (EW-13): 0.485 µM | IC50 (SNU-C2B): > 8 µM | IC50 (SK-MEL-2): > 8 µM | IC50 (CW-2): > 8 µM | IC50 (SW982): > 8 µM | IC50 (OCUB-M): 1.02 µM | IC50 (CGTH-W-1): > 8 µM | IC50 (KMOE-2): > 8 µM | IC50 (P30-OHK): > 8 µM | IC50 (HL-60): > 8 µM | IC50 (COR-L88): > 8 µM | IC50 (KURAMOCHI): > 8 µM | IC50 (LS-513): > 8 µM | IC50 (KU812 cell line): > 8 µM | IC50 (CTB-1): > 8 µM | IC50 (HAL-01): > 8 µM | IC50 (HD-MY-Z): > 8 µM | IC50 (QIMR-WIL): > 8 µM | IC50 (NH-12): > 8 µM | IC50 (K562): > 8 µM | IC50 (SBC-1): > 8 µM | IC50 (LC-2-ad): > 8 µM | IC50 (SK-UT-1): > 8 µM | IC50 (ONS-76): > 8 µM | IC50 (LS-123): > 8 µM | IC50 (KM12): > 8 µM | IC50 (MS-1): > 8 µM | IC50 (MC116): > 8 µM | IC50 (HH): > 8 µM | IC50 (TGBC1TKB): > 8 µM | IC50 (U-87 MG): > 8 µM | IC50 (HCC 2998): > 8 µM | IC50 (TGW): > 8 µM | IC50 (ES3): > 8 µM | IC50 (NCI-H1092): > 8 µM | IC50 (OS-RC-2): > 8 µM | IC50 (COLO-668): > 8 µM | IC50 (DMS-79): > 8 µM | IC50 (EW-11): > 8 µM | IC50 (A388): > 8 µM | IC50 (GAK): > 8 µM | IC50 (MFM-223): > 8 µM | IC50 (DSH1): > 8 µM | IC50 (NCI-H69): > 8 µM | IC50 (JAR): > 8 µM | IC50 (MLMA): > 8 µM
